Measurements taken from patent US12630527B2, “Broad spectrum anti-cancer compounds” (The Regents of the University of California, priority 2019, dated 2026).
“Also recorded” adds a separate entry of the source.

Tests used:
FTO [1] = target: T1, FTO (Homo sapiens, UniProt Q9C0B1); conditions: reported (ref. 36); stated as selectivity against ALKBH5; cited from earlier work
T1 construct: SUMO (N); His10 (N); made in house; host or cells: E. coli BL21

MONOMAC6 and NB4 cells = conditions: fold, Huang et. al; cited from earlier work
[2] = QikProp calculation of clogP and membrane permeability (Caco-2, MDCK models); conditions: predicted permeability models; fold
Description: In order to identify chemically distinct inhibitors of FTO, we used a combination of structure-based drug design and molecular docking with the Schrödinger software suite to target the MA binding site of FTO. […] Interactions with these four residues were considered highly favorable. […] Docking poses for FTO-1-20 are in the supporting information (FIGS. 32-51). Hits showing promising docking scores (absolute value ≥7) were also analyzed by QikProp to assess their physicochemical properties. As existing FTO inhibitors fail to progress to clinical applications due to poor pharmacokinetic profiles, it was important to filter our screen for compounds with more favorable physicochemical properties. […] These criteria were selected due to multiple studies indicating compounds with low molecular weight and moderate lipophilicity are more likely to show favorable adsorption and clearance rates, and less toxicity due to target promiscuity. As such, controlling the physicochemical properties of inhibitors during the initial screening stages should select for better leads for future optimization and development. Based on these criteria, the top 20 inhibitors were selected for synthesis (Table S1). These parameters were also calculated for MA, FB23-2 and its precursor FB23 (Table S2). […]

GBM-GSC-23 = assay: Tumorosphere (neurosphere) formation assay, GBM-GSC-23; type: cell-based, human; conditions: 20 μM, 2 days, listed as FTO-04
[3] = tested on: human neural stem cells (hNSC); assay: Neurosphere formation assay, healthy neural stem cells; type: cell-based; conditions: healthy neural stem cells (hNSCs), 20 μM; listed as FTO-04
Description: (§1) To understand the effects of our FTO inhibitors on the self-renewal properties of GSCs, tumorospheres cultured from the patient-derived GSC line TS576 were treated with 30 μM of FTO-04, FTO-10, FTO-11, or FTO-12 (FIG. 29A-29B; cell line gifted from the Furnari lab).^45, 46 The GSCs were cultured in sphere-forming assays for 24 hours, then treated with either inhibitors or DMSO control for 2 days. The size of the tumorospheres was calculated using ImageJ.
(§2) Early passaged GSCs were used to understand the efficacy of ALK-04 on the self-renewal capacity of GSCs by tumorsphere-formation assay as described earlier^10, 11. In brief, GSCs were seeded at 4×10^4 cells in 24 well plate and cultured for 3 days followed by treatment with ALK-04 inhibitors at 20 μM daily for 3 days. After 3 days of treatment the images of the tumorospheres were imaged with phase contrast microscope and size was measured with Image J, to understand the effects of drugs on the self-renewal of GSCs on sphere formation. This process was also repeated for healthy neural stem cells (hNSCs) treated daily with 20 μM ALK-04 for three days to assess the therapeutic ratio.

[4] = tested on: TS576 glioblastoma stem cells; assay: Tumorosphere (neurosphere) formation assay, TS576; type: cell-based, human; conditions: 2 days
Description: as §1, §2

FTO [5] = target: T1, FTO; assay: Steady-state (Michaelis-Menten) inhibition kinetics, FTO; type: biochemical; conditions: velocity and double-reciprocal plots; 0-40 μM inhibitor, 0-10 μM substrate; listed as FTO-04
FTO [6] = target: T1, FTO; assay: Fluorescence enzymatic inhibition assay (m6A7-Broccoli / DFHBI-1T), FTO; type: biochemical; conditions: fold more potent than MA (IC50=12.5)
Description: In order to determine their efficacy as FTO inhibitors, the compounds were screened by a fluorescence enzymatic inhibition assay developed previously by the Jaffrey lab.^44 Briefly, a nonfluorescent methylated RNA substrate termed “m6A7-Broccoli” is incubated with FTO in the presence of 2-oxoglutarate (300 μM), (NH4)2Fe(SO4)2·6H2O (300 μM), and L-ascorbate (2 mM) for 2 hours at room temperature in reaction buffer (50 mM NaHEPES, pH 6).
E. coli BL21 competent cells (New England Biolabs) were transformed with pET28-SUMO-His10-FTO plasmid (a generous gift from the Jaffrey lab) by heat shock and spread on a LB Kanamycin agar plate, then incubated overnight at 37° C. 2-3 colonies were picked and transferred to 5 mL of LB media treated with kanamycin (0.5 mg mL^−1 final concentration), then grown overnight shaking at 37° C. The overnight culture was then transferred to 2 L of LB kanamycin media and incubated at 37° C. until OD 0.8. The culture was cooled at 4° C. for 20 mins and induced with 0.5 mM isopropyl β-D-1-thiogalactopyranoside (IPTG), then grown shaken at 16° C. Cell pellets were collected by centrifugation (5,000 g for 10 min at 4° C.) and the supernatant was discarded. The pellets were resuspended in B-PER Bacterial Protein Extraction Reagent (6 mL per gram) with DNase 1 (5 U per mL, RNase-free) and incubated at 4° C. for 1 hour. The suspension was centrifuged at 10,000 g for 20 min and the supernatant was transferred to a Talon Metal Affinity Resin column that had been pre-equilibrized with binding buffer (50 mM NaH2PO4 pH 7.2, 300 mM NaCl, 20 mM imidazole, 1 mM β-mercaptoethanol in RNase-free water). […] The eluant was combined and transferred to a Slyde-A-Lyzer Dialysis Cassette (20,000 MWCO, Thermo Scientific) and dialyzed overnight at 4° C. against dialysis buffer (50 mM Tris-HCl pH 7.4, 100 mM NaCl, 5 mM B-mercaptoethanol, 5% (v/v) glycerol in RNase-free water). […] ALKBH5 was expressed and purified from pET28-SUMO-His10-ALKBH5 plasmid by the same procedure described above.
Inhibitors were added in concentrations ranging from 0.008-40 μM; all inhibitors were dissolved in DMSO and added to a final concentration of 0.2% DMSO. […] After incubation at room temperature for 2 hours, the plates were left at 4° C. overnight (16 hours) to allow DFHBI-1T to bind to A7-Broccoli RNA. […] Sigmoidal dose-response curves were fitted in GraphPad Prism 6. All assays were performed in triplicate, with additional repetitions added as necessary.

[7] = tested on: m6A mRNA levels in TS576 cells; assay: m6A dot blot assay on poly(A)+ mRNA; type: cell-based, human; conditions: vs DMSO control, does not distinguish m6A and m6Am
Description: Next, we sought to determine if FTO-04 was able to alter m6A levels in purified mRNA from GSCs by m6A dot blot assay. TS576 cells were treated with 2, 10, and 50 ng shControl or shFTO to establish the relative change in m6A mRNA levels due to FTO knockdown. […] TS576 cells were then treated with 2, 10, and 50 ng of either DMSO or FTO-04 (FIG. 59B).
Polyadenylated mRNA were isolated from TS576 cells treated with either DMSO, FTO-04 (30 μM), and control (shControl) or FTO lentivirus (shFTO) knockdown samples by using Magnetic mRNA Isolation Kit (New England Biolabs, S1550S). Isolated mRNA was quantified, serially diluted and denatured at 95° C. for 3 min, then chilled on ice to prevent reformation of secondary structure of mRNA. Denatured mRNA samples were spotted on an Amersham Hybond-N^+ membrane (GE Healthcare, RPN3050B) and cross-linked to the membrane with UV radiation. After crosslinking the membrane was washed with phosphate buffer saline with 0.1% tween-20 (PBST) and blocked in 5% of non-fat milk in PBST buffer, and then incubated with anti-m^6A antibody (1:1000; abcam) overnight at 4° C. The membrane was then washed as before and incubated in HRP-conjugated secondary antibodies for 1 h at room temperature. The membrane was then developed with Thermo ECL SuperSignal West Femto Maximum Sensitivity Substrate (Thermo Fisher Scientific).

GBM-6 = assay: Tumorosphere (neurosphere) formation assay, GBM-6; type: cell-based, human; conditions: GBM-6, 20 μM, 2 days; listed as FTO-04

T1 sequence (Q9C0B1 whole entry): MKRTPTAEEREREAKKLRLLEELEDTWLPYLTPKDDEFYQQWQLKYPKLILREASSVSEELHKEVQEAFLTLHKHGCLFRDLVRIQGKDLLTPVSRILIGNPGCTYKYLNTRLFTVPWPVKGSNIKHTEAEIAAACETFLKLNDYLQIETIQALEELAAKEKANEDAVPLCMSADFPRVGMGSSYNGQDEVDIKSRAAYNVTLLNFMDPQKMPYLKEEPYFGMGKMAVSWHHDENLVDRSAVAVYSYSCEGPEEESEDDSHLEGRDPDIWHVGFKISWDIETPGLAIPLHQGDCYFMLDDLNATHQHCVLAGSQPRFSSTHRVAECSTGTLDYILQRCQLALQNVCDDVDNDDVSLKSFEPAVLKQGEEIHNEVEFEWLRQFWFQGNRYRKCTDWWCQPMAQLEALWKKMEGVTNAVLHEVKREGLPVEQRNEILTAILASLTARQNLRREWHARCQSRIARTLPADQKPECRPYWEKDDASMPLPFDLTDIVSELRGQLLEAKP

Row | estimated rate of passive diffusion relative to FB23 [2] | potency against FTO relative to MA (FTO [6]) | SMILES | inhibition of FTO at 50 μM (FTO [1]) | cellular concentration relative to FB23 (MONOMAC6 and NB4 cells) | size of tumorospheres (GBM-GSC-23) | neurosphere size [3] | size of tumorospheres ([4]; TS576, 20 μM, listed as FTO-04) | size of tumorospheres ([4]; TS576, 30 μM, vs vehicle control) | mechanism of inhibition of FTO (FTO [5]) | m6A mRNA levels [7] | size of tumorospheres (GBM-6)
1 | ~2.5 |  | Cc1noc(C)c1-c1cc(Cl)c(Nc2ccccc2C(=O)NO)c(Cl)c1 [FB23-2] | little to no inhibition | 3-10 |  |  |  |  |  |  | 
2 |  | approximately 4 | COc1ncc(-c2ccc3nc(N)sc3c2)cn1 [FTO-4, 6-(2-methoxypyrimidin-5-yl)benzo[d]thiazol-2-amine] |  |  | inhibits GSC neurospheres formation; also recorded: significantly decrease the size of tumorospheres | without impairing hNSC neurosphere growth; also recorded: no alteration in neurosphere size | inhibits GSC neurospheres formation; also recorded: significantly decrease the size of tumorospheres | significant reduction in size of the tumorospheres | competitive inhibitor; also recorded: competitive mechanism of inhibition | increase m6A mRNA levels significantly compared to DMSO control | inhibits GSC neurospheres formation; also recorded: significantly decrease the size of tumorospheres
